“Also recorded” adds a separate entry of the source.
Columns and labels:
Format in all cases: cell-based
rat liver spheroids [1] = assay: Total protein content of rat liver spheroids after GalN exposure (Bradford); conditions: 24 hr exposure, vs control
Description: (§1) Liver spheroids were prepared from the liver of male Wistar rats by a two-step collagenase perfusion method described by Seglen P. O. ((1976). Preparation of isolated rat liver cells. Methods Cell. Biol. 13, 29-38) and modified by Lazar, A.; Peshwa, M. V., Wu, F. J., Chi, C. M., Cerra, F. B., and Hu, W. S. (1995). Extended liver-specific functions of procirne hepatocyte spheroids entrapped in collagen gel. In Vitro Cell Biol Anim. 31, 340-346). Viability of the isolated liver cells was determined by tyrpan blue dye exclusion i.e. an aliquot of isolated liver cells was mixed with an equal volume of trypan blue dye (1.0% w/v in isotonic saline) and incubated at room temperature for a minimum period of 5 minutes. Only isolated liver cell preparations with viability above 80% were used to prepare liver spheroids. […]
Spheroids were homogenized in homogenisation buffer containing NaH2PO42H2O, 2 mM; Na2HPO4, 2 mM; EDTA, 0.5 mM; and NaCl, 145 mM. Total protein was assessed according to the method developed by Bradford (1976). […] The protein content was determined by Micro Protein Kit (Sigma, Cat. No. 610-A). […] Absorbance was read on a microplate reader (Multiscan RC, Labsystem) at 595 nm.

rat liver spheroids [2] = assay: Albumin synthesis of liver spheroids after GalN exposure (BCG albumin kit, medium); conditions: 24 hr exposure
Description: as §1, with “spheroids. The cell suspension was diluted with culture medium (hepatocyte medium supplemented with 10% FCS, […] L-glutamine, 2 ng/ml insulin, 100 U/ml penicillin and 100 μg/ml streptomycin sulfate) to give a cell density of 5×10^5 cells/ml. The diluted cell suspension was dispersed into 6-well plates, 3 ml/well.” for “spheroids.”
Albumin concentration in the medium was determined by Albumin Reagent Kit (BCG, Sigma). […] Absorbance was read on a microplate reader (Multiscan RC, Labsystems) at 630 nm.

rat liver spheroids [3] = assay: Urea synthesis of liver spheroids after GalN exposure (Urea Nitrogen Kit, medium)
Description: as §1
Urea concentration in the media was determined using a Urea Nitrogen Kit (Cat. 640-A, Sigma). The method was modified in order to be suitable for a 96-well plate format and assays using a microplate reader. […] Total ammonium nitrogen of each sample was determined by adding 25 μl urease solution to each well followed by 10 μl of diluted medium. […] A blue colour developed and the absorbance was read on a microplate reader (Multiscan RC, Labsystems) at 590 nm. Free non-urea nitrogen was determined by adding 25 μl PBS without urease followed by 10 μl medium. […]

rat liver spheroids [4] = assay: Glutathione content of liver spheroids after GalN exposure (fluorimetric OPT method); conditions: 24 hr exposure
Description: as §1, with “spheroids. The cell suspension was diluted with culture medium (hepatocyte medium supplemented with 10% FCS, […] L-glutamine, 2 ng/ml insulin, 100 U/ml penicillin and 100 μg/ml streptomycin sulfate) to give a cell density of 5×10^5 cells/ml.” for “spheroids.”
Glutathione levels in spheroids were determined by the fluorimetric method (Hissin P. J., and Hilf (1976). A fluorimetric method for the determination of oxidised and reduced glutathione in tissues. Anal. Biochem. 74, 214-226). […] Absorbance was read on a fluorimeter at excitation wavelength 350 nm and emission wavelength 420 nm.

rat liver spheroids [5] = assay: Lactate dehydrogenase (LDH) leakage of liver spheroids after GalN exposure
Description: (§2) Liver spheroids were prepared from the liver of male Wistar rats by a two-step collagenase perfusion method described by Seglen P. O. ((1976). Preparation of isolated rat liver cells. Methods Cell. Biol. 13, 29-38) and modified by Lazar, A.; Peshwa, M. V., Wu, F. J., Chi, C. M., Cerra, F. B., and Hu, W. S. (1995). Extended liver-specific functions of procirne hepatocyte spheroids entrapped in collagen gel. In Vitro Cell Biol Anim. 31, 340-346). Viability of the isolated liver cells was determined by tyrpan blue dye exclusion i.e. an aliquot of isolated liver cells was mixed with an equal volume of trypan blue dye (1.0% w/v in isotonic saline) and incubated at room temperature for a minimum period of 5 minutes. Only isolated liver cell preparations with viability above 80% were used to prepare liver spheroids. The cell suspension was diluted with culture medium (hepatocyte medium supplemented with 10% FCS, […] L-glutamine, 2 ng/ml insulin, 100 U/ml penicillin and 100 μg/ml streptomycin sulfate) to give a cell density of 5×10^5 cells/ml. The diluted cell suspension was dispersed into 6-well plates, 3 ml/well. The plates were incubated at 37° C., in a 5% CO2 incubator on a gyrotatory shaker (New Brunswick) at an initial rotation speed of 85 rpm for the first 24 hr and 77 rpm thereafter. The plates were rotated at this speed for the duration of the study (up to 45 days, but typically 2-10 days). 1.5 ml of old medium was replaced with 2.0 ml fresh medium for each well every other day. Media exchange was carried out over the duration of the study (up to 45 days, but typically 2-10 days). […]
LDH in the media was assayed using the method developed by Korzeniewski and Callewaert (Korzeniwski, C., and Callewaert, D. M. (1983). An enzyme-release assay for natural cytotoxicity. J Immun. Meth. 64, 313-320). […] The resultant absorbance at 490 mn was monitored for 15 min, at 10 sec intervals on a microplate reader (Multiscan RC, Labsystem).

rat liver spheroids [6] = assay: Intoxification of liver spheroids: spheroid damage / functional change observed
Description: as §2, with “thereafter.” for “thereafter. The plates were rotated at this speed for the duration of the study (up to 45 days, but typically 2-10 days). 1.5 ml of old medium was replaced with 2.0 ml fresh medium for each well every other day. Media exchange was carried out over the duration of the study (up to 45 days, but typically 2-10 days).”

[7] = 0-40 mM GalN, trend over concentration

Q: How did the “total protein content of spheroids” value (rat liver spheroids [1]; 20 mM or lower GalN) turn out when `N[C@H]1C(O)O[C@H](CO)[C@H](O)[C@@H]1O` (stereo partly drawn) [GalN, D-Galactosamine] was run?
A: not affected; also recorded: did not decrease

Q: What about the “total protein content of spheroids” value (rat liver spheroids [1]; 40 mM GalN, p<0.05) of the same compound?
A: significantly decreased

Q: What about the albumin synthesis (rat liver spheroids [2]; [7]) of the same compound?
A: concentration-dependent decrease

Q: What about the albumin synthesis (rat liver spheroids [2]; 40 mM GalN, vs control, p<0.05) of the same compound?
A: decrease was significant

Q: What about the urea synthesis (rat liver spheroids [3]; 0-40 mM GalN, 24 hr after exposure, trend over concentration) of the same compound?
A: concentration-dependent increase

Q: And the “synthetic rates of urea” value (rat liver spheroids [3]; 10 mM or higher GalN, 24 hr, vs control, p<0.05)?
A: significantly higher

Q: What about the glutathione content (rat liver spheroids [4]; 20 mM and lower GalN) of the same compound?
A: did not decrease

Q: And the glutathione content (rat liver spheroids [4]; 40 mM GalN, p<0.05)?
A: significantly decreased

Q: What about the LDH leakage (rat liver spheroids [5]; [7]) of the same compound?
A: concentration-dependent increase

Q: And the LDH leakage (rat liver spheroids [5]; 10 mM GalN, 24 hr, p<0.05)?
A: significantly increased

Q: What about the LDH leakage (rat liver spheroids [5]; 20 and 40 mM GalN, 4 hours after exposure, vs control, p<0.05) of the same compound?
A: significant increase

Q: What about the “functional change of liver spheroids” value (rat liver spheroids [6]; 20 mM GalN) of the same compound?
A: caused a functional change

Q: What about the “spheroid damage / cell death” value (rat liver spheroids [6]; 40 mM GalN (highest concentration), 24 hr exposure) of the same compound?
A: caused acute cell death

From patent publication US20040091460A1, “Preparation of spheroids” (priority 2000, published 2004)
